{
  "source": "patent US9612238B2",
  "about": "(priority 2011, dated 2017)",
  "key": {"RML prions": {"system": "RML prions", "assay_type": "cell-based", "details": "for rebound of infectivity after treatment cessation (RML): 18 days post-infection, 6 days after treatment cessation; for infection of PK1 neuroblastoma cells by RML prions (PrPSc western blot): pretreated 3 days, treated 12 days after infection, 9 and 18 days post-infection"}, "22L prions": {"system": "22L prions", "assay_type": "cell-based", "details": "for rebound of infectivity after treatment cessation (22L): 18 days post-infection, 6 days after treatment cessation; for infection of PK1 neuroblastoma cells by 22L prions (PrPSc western blot): pretreated 3 days, treated 12 days after infection, 9 and 18 days post-infection"}, "[1]": {"system": "cell surface PrP on N2a cells", "assay_type": "cell-based"}, "[2]": {"system": "cell surface PrP on LD9 cells", "assay_type": "cell-based", "details": "24 hours"}, "[3]": {"system": "RML scrapie-infected PK1 cells", "assay_type": "cell-based", "details": "1 μg/ml PIPLC, 26 hours"}, "cell surface PrP": {"system": "cell surface PrP", "details": "1 μg/ml"}},
  "note": "“Also recorded” adds a separate entry of the source.",
  "data": [
    {"compound": "COc1ccc(CCN2CCC(Nc3nc4ccccc4n3Cc3ccc(F)cc3)CC2)cc1", "note": "[Astemizole]", "values": [
      {"measurement": "rebound of infectivity after treatment cessation (RML)", "setting": "RML prions", "value": "no rebound of infectivity"},
      {"measurement": "infection of PK1 neuroblastoma cells by RML prions (PrPSc western blot)", "setting": "RML prions", "value": "block infection"},
      {"measurement": "rebound of infectivity after treatment cessation (22L)", "setting": "22L prions", "value": "no rebound of infectivity"},
      {"measurement": "infection of PK1 neuroblastoma cells by 22L prions (PrPSc western blot)", "setting": "22L prions", "value": "block infection"},
      {"measurement": "reduction of cell surface PrP, confirmation by secondary screening", "setting": "[1]", "value": "confirmed; also recorded: active"}
    ]},
    {"compound": "C[C@H]1CCC/C=C/[C@@H]2C[C@H](O)C[C@H]2[C@H](O)/C=C/C(=O)O1", "note": "[BFA, Brefeldine A]", "values": [
      {"measurement": "toxicity to LD9 cells (cell viability, CELLTITER-GLO)", "setting": "LD9 cells", "value": "none of the tested doses of BFA were toxic"},
      {"measurement": "PrP expression, percentage of the DMSO control", "setting": "[2]; 384-well screening plates", "value": 0, "unit": "%"}
    ]},
    {"compound": "CC[C@H]1CN2CCc3cc(OC)c(OC)cc3[C@@H]2C[C@@H]1C[C@H]1NCCc2cc(OC)c(OC)cc21", "note": "[Emetine]", "values": [
      {"measurement": "reduction of cell surface PrP, confirmation by secondary screening", "setting": "[1]", "value": "active"}
    ]},
    {"compound": "CC[C@@H](C(=O)[C@@H](C)[C@@H](O)[C@H](C)CCc1ccc(C)c(O)c1C(=O)O)[C@H]1O[C@](CC)([C@H]2CC[C@](O)(CC)[C@H](C)O2)C[C@@H]1C", "note": "[Lasalocid sodium]", "values": [
      {"measurement": "reduction of cell surface PrP, confirmation by secondary screening", "setting": "[1]", "value": "confirmed; also recorded: active"}
    ]},
    {"compound": "CC[C@@]1([C@@H]2O[C@@H]([C@H]3O[C@@](O)(CO)[C@H](C)C[C@@H]3C)C[C@@H]2C)CC[C@H]([C@]2(C)CC[C@]3(C[C@H](O)[C@@H](C)[C@@H]([C@@H](C)[C@@H](OC)[C@H](C)C(=O)O)O3)O2)O1", "note": "[Monensin]", "values": [
      {"measurement": "reduction of cell surface PrP, confirmation by secondary screening", "setting": "[1]", "value": "active"}
    ]},
    {"compound": "C=CC[C@@H]1/C=C(\\C)C[C@H](C)C[C@H](OC)[C@H]2O[C@@](O)(C(=O)C(=O)N3CCCC[C@H]3C(=O)O[C@H](/C(C)=C/[C@@H]3CC[C@@H](O)[C@H](OC)C3)[C@H](C)[C@@H](O)CC1=O)[C@H](C)C[C@@H]2OC", "note": "[Tacrolimus]", "values": [
      {"measurement": "rebound of infectivity after treatment cessation (RML)", "setting": "RML prions", "value": "no rebound of infectivity"},
      {"measurement": "infection of PK1 neuroblastoma cells by RML prions (PrPSc western blot)", "setting": "RML prions", "value": "block infection"},
      {"measurement": "rebound of infectivity after treatment cessation (22L)", "setting": "22L prions", "value": "no rebound of infectivity"},
      {"measurement": "infection of PK1 neuroblastoma cells by 22L prions (PrPSc western blot)", "setting": "22L prions", "value": "block infection"},
      {"measurement": "reduction of PrP expression in the primary assay", "setting": "[2]; 20 μM", "value": 70, "unit": "%"},
      {"measurement": "reduction of cell surface PrP, confirmation by secondary screening", "setting": "[1]", "value": "confirmed"},
      {"measurement": "reduction of PrP in the secondary assay, IN Cell analyzer quantification", "setting": "[1]; at 30 (unit not given)", "value": 73, "unit": "%"},
      {"measurement": "reduction of PrP in the secondary assay, flow cytometry", "setting": "[1]; at 30 (unit not given)", "value": 75, "unit": "%"}
    ]},
    {"compound": "CCCCCCCCCCCCCCCC[N+](C)(C)C", "note": "[cetrimonium]", "values": [
      {"measurement": "reduction of cell surface PrP, confirmation by secondary screening", "setting": "[1]", "value": "active"}
    ]},
    {"compound": "phosphatidylinositol phospholipase C [PIPLC]", "values": [
      {"measurement": "RI200 (reciprocal of the cell number required to give 200 spots)", "setting": "[3]", "value": "5×10^−4"},
      {"measurement": "inhibition of infection", "setting": "[3]; from RI200 values", "value": 85, "unit": "%"},
      {"measurement": "cell surface PrP removed", "setting": "cell surface PrP", "value": "approximately 50%"}
    ]}
  ]
}
